Assay results reported in ChEMBL document CHEMBL4190377, “Design of Aminopeptidase N Inhibitors as Anti-cancer Agents” (J Med Chem, 2018).
Values after ≈ are worked out from the molar mass of the structure shown.

Key:
[1] = target: T1, Aminopeptidase N (Sus scrofa, UniProt P15145); test: Inhibition of pig APN
T1 sequence (P15145 whole entry): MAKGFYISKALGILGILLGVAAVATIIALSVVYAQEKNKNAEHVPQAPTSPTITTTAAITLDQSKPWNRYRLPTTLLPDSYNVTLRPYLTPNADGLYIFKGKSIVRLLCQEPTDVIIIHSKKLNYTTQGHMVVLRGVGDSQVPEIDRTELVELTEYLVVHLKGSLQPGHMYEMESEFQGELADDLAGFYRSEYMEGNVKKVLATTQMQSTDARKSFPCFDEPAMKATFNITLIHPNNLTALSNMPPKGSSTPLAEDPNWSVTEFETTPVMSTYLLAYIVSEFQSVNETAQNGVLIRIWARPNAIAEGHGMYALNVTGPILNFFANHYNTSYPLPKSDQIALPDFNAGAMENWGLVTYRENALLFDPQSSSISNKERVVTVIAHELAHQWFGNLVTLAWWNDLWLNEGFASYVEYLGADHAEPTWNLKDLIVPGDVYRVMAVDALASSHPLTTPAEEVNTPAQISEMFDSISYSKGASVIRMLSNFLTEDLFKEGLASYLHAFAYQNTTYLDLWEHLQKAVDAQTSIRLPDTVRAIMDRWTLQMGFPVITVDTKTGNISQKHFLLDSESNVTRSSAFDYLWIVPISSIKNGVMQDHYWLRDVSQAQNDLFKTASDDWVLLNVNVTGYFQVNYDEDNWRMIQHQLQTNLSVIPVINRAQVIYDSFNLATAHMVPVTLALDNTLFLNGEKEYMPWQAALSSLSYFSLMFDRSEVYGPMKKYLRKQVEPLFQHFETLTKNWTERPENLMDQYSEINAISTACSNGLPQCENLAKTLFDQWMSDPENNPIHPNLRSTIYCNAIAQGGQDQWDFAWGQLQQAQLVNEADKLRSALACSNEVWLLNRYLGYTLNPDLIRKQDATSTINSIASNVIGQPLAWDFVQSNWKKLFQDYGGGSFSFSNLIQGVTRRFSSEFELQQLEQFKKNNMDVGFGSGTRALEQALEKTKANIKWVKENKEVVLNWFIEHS

[2] = target: T1, Aminopeptidase N; test: Inhibition of APN in porcine kidney microsomes using L-leucine-p-nitroanilide as substrate preincubated for 30 mins followed by substrate addition measured after 15 mins by UV-visible spectrophotometric method
[3] = target: T2, Glutamyl aminopeptidase (Homo sapiens, UniProt Q07075); test: Inhibition of APA (unknown origin) using GlubetaNA as substrate after 30 mins
[4] = target: T1, Aminopeptidase N; test: Inhibition of APN in porcine kidney using Ala-betaNA as substrate preincubated for 10 mins followed by substrate addition measured after 30 mins by fluorescence spectrofluorometric method
[5] = target: T1, Aminopeptidase N; test: Inhibition of APN in porcine kidney using Ala-p-NA as substrate
[6] = target: T2, Glutamyl aminopeptidase; test: Inhibition of APA (unknown origin) using GluNA as substrate
[7] = target: T3, Cytosol aminopeptidase (Sus scrofa, UniProt P28839); test: Inhibition of porcine kidney leucine aminopeptidase using LGG as substrate after 90 mins
T3 sequence (P28839 whole entry): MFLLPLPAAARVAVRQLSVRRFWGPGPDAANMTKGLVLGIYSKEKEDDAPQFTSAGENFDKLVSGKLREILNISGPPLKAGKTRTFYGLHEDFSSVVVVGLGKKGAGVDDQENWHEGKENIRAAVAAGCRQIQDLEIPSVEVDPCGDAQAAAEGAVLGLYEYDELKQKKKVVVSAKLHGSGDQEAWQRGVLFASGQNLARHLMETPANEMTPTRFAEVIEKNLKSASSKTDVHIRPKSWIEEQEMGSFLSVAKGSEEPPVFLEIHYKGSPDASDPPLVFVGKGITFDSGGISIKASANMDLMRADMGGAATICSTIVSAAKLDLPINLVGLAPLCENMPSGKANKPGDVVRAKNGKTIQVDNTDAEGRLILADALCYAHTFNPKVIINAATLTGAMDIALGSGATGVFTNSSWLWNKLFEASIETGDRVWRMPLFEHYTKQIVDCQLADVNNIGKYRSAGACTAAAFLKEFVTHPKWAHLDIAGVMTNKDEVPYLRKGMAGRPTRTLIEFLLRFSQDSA

[8] = target: T4, Cytosol aminopeptidase (Sus scrofa) (UniProt P28839); test: Potency index, ratio of bestatin IC50 to compound IC50 for porcine kidney leucine aminopeptidase
T4 sequence (whole entry): T3 sequence (P28839 whole entry)

[9] = Selectivity ratio of IC50 for APN (unknown origin) to IC50 for porcine kidney leucine aminopeptidase
[10] = target: T5, Aminopeptidase N (Homo sapiens, UniProt P15144)
Description: Inhibition of APN (unknown origin)

[11] = target: T1, Aminopeptidase N; test: Inhibition of APN in porcine kidney microsomes using L-leucine-p-nitroanilide as substrate preincubated for 30 mins followed by substrate addition by UV-visible spectrophotometric method
[12] = tested on: HL-60; test: Antiproliferative activity against human HL60 cells after 72 hrs by MTT assay; type: functional, cell-based; conditions: HL-60, 72 h
[13] = Solubility in PBS; type: physicochemical
[14] = Antiproliferative activity against human ES2 cells over-expressing APN after 48 hrs by MTT assay; type: functional, cell-based; conditions: ES-2, 48 h
[15] = tested on: A549; test: Antiproliferative activity against human A549 cells over-expressing APN after 48 hrs by MTT assay; type: functional, cell-based; conditions: A549, 48 h
[16] = tested on: MDA-MB-231; test: Antiproliferative activity against human MDA-MB-231 cells after 48 hrs by MTT assay; type: functional, cell-based; conditions: MDA-MB-231, 48 h
[17] = target: T5, Aminopeptidase N; test: Competitive inhibition of aminopeptidase-M (unknown origin)
[18] = target: T6, Aminopeptidase B (Rattus norvegicus, UniProt O09175); test: Inhibition of APB in rat testis using ArgbetaNA as substrate
T6 sequence (O09175 whole entry): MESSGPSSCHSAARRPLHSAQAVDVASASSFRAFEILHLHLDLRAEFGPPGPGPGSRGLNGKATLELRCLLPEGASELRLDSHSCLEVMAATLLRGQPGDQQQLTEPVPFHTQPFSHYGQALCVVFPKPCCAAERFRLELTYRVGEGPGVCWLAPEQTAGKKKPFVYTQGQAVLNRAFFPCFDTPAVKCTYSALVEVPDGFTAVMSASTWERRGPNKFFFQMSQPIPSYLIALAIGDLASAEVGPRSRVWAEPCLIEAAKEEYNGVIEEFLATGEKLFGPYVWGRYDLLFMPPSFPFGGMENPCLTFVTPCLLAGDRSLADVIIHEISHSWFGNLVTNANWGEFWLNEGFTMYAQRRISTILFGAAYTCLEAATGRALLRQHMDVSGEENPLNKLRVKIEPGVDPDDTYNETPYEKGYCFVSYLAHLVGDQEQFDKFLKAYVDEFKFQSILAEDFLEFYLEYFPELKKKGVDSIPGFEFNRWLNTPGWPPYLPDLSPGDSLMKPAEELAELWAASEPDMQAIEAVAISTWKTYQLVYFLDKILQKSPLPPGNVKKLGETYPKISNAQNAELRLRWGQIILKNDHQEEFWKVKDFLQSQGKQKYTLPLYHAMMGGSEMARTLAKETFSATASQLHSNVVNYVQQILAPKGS

[19] = tested on: Mus musculus; test: Increase in plasma vasopressin release in mouse at 100 ug administered as single dose by RIA; type: functional
[20] = target: T7, Leucine aminopeptidase (Sus scrofa, UniProt Q29571); test: Competitive inhibition of LAP in porcine kidney microsomes
T7 sequence (Q29571 whole entry): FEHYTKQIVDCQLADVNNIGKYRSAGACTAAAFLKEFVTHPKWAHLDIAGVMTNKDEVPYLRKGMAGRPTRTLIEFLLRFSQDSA

[21] = target: 72 kDa type IV collagenase (Homo sapiens, UniProt P08253); test: Inhibition of recombinant human MMP2 expressed in Escherichia coli preincubated for 30 mins followed by succinylated gelatin substrate addition measured after 60 mins
[22] = tested on: HL-60; test: Antiproliferative activity against human HL60 cells after 48 hrs by MTT assay; type: functional, cell-based; conditions: HL-60, 48 h
[23] = tested on: SK-OV-3; test: Antiproliferative activity against human SKOV3 cells after 48 hrs by MTT assay; type: functional, cell-based; conditions: SK-OV-3, 48 h
[24] = target: T8, Leukotriene A-4 hydrolase (Homo sapiens, UniProt P09960); test: Inhibition of full-length recombinant C-terminal FLAG-tagged human leukotriene A4 hydrolase expressed in baculovirus-infected insect cells using Arg-AMC as substrate after 1 hr by fluorescence assay
T8 sequence (P09960 whole entry): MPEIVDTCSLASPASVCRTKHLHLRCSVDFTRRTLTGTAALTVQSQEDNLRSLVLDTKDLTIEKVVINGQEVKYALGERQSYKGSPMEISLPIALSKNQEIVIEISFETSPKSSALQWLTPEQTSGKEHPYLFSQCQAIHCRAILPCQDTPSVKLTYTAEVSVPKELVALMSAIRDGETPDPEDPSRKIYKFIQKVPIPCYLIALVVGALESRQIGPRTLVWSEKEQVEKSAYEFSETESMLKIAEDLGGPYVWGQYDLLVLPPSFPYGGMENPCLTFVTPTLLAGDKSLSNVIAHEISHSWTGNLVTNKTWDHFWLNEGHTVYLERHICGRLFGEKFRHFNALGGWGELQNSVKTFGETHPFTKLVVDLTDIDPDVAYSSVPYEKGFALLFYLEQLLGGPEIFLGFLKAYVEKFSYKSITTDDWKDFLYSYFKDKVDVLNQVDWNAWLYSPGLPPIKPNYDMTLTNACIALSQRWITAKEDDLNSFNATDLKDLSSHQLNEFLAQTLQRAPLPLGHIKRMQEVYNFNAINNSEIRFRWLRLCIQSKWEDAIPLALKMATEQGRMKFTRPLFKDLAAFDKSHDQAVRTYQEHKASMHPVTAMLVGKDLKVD

T5 sequence (P15144 whole entry): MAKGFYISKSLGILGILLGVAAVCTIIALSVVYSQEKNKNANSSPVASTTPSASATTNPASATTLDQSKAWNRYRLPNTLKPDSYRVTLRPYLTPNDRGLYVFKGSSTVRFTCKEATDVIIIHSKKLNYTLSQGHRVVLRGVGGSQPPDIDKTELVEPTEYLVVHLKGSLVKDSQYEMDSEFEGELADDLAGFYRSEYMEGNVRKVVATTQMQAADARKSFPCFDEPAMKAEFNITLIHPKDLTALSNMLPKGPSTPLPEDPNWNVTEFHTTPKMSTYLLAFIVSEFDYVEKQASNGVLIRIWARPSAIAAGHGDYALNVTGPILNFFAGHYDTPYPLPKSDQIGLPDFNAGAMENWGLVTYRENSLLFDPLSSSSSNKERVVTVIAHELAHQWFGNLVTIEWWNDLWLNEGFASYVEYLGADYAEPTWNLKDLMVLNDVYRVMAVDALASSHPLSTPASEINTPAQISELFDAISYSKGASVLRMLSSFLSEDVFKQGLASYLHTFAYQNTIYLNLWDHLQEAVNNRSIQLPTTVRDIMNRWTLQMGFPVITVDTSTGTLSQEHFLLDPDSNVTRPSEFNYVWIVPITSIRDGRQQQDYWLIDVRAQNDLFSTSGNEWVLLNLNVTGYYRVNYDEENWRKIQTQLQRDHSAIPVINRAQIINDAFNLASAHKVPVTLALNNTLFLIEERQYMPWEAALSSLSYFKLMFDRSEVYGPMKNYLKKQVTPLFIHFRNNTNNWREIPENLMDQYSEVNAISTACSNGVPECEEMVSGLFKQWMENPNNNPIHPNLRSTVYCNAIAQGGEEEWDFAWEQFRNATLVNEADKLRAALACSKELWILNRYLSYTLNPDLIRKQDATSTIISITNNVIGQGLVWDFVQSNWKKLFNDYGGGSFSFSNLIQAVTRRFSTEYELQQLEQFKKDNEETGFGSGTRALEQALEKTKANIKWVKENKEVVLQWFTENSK
T2 sequence (Q07075 whole entry): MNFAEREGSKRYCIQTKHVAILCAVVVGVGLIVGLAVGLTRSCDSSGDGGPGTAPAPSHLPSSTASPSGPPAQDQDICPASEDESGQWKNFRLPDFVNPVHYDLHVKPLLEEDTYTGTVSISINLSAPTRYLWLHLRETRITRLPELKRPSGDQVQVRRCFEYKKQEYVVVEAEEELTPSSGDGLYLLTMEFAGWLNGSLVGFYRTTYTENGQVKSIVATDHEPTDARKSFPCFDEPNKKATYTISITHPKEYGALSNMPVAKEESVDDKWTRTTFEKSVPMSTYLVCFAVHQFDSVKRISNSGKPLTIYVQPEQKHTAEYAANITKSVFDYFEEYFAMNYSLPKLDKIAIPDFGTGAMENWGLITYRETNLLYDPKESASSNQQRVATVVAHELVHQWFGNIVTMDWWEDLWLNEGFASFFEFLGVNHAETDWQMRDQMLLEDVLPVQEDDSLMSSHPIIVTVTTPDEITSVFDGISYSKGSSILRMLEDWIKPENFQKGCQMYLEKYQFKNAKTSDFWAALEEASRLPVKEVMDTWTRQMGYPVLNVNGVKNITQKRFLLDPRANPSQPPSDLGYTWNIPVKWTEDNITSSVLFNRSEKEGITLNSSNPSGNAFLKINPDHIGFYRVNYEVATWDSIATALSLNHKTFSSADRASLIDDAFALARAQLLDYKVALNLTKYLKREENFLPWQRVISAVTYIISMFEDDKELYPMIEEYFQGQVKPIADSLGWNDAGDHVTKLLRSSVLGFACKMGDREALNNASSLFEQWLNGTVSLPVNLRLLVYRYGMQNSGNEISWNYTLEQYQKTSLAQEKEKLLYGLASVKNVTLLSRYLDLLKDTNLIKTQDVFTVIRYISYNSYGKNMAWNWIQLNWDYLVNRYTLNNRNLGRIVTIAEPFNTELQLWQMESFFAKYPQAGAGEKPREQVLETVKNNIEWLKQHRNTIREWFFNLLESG
Sequence of 72 kDa type IV collagenase (P08253 whole entry): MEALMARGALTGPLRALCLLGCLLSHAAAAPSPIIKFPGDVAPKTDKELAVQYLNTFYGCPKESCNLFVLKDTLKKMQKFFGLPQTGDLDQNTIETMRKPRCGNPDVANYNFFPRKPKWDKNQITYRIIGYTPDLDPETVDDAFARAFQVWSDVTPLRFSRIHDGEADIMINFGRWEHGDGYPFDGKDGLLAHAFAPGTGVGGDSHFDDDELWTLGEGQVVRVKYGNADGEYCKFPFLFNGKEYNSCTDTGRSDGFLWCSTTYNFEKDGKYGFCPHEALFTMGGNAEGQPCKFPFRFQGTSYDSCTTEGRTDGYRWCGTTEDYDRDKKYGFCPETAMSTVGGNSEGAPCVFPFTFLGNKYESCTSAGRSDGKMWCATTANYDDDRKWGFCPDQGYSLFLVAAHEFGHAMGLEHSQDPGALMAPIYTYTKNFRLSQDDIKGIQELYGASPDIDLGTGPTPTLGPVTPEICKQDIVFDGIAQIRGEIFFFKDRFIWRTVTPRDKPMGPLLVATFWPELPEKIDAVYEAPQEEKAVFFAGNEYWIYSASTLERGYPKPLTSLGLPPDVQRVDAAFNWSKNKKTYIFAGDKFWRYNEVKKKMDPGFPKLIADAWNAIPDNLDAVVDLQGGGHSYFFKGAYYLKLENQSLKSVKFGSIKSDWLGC

N#Cc1cc(Cc2ccc3c(ccc4ccccc43)c2C#N)cc2c1ccc1ccccc12
Ki [1]: 2900 nM

C(=C1/c2ccccc2-c2c1ccc1ccccc21)/c1cc2c3c(cccc3c1)-c1ccccc1-2
Ki [1]: 1630 nM

NC1COc2ccccc2CC1=O (stereo not drawn)
Ki [1]: 1000 nM

CC(C)C[C@@H](NC(=O)[C@H](Cc1ccc(O)cc1)NC(=O)[C@@H](O)CN)C(=O)O
IC50 [2]: 2510 nM

CC[C@H](C)[C@H](NC(=O)C(S)C(N)CCC(=O)O)C(=O)N[C@@H](CC(=O)O)C(=O)O (stereo partly drawn)
Ki [3]: 13 nM | Ki [4]: 120 nM

C[C@@](Cc1ccccc1)(NC(=O)[C@H](Cc1ccccc1)CP(=O)(O)C(N)Cc1ccccc1)C(=O)O (stereo partly drawn)
Ki [5]: 1.5 nM | Ki [6]: 40000 nM

CC(C)C[C@H](C(=O)N[C@H](C(=O)OC1CCCC1)c1ccccc1)[C@H](O)C(=O)NO
IC50 [7]: 100 nM | Ratio IC50 [8]: 300 | Ratio IC50 [9]: 2 | IC50 [10]: 220 nM

Cc1ccc(C(=O)NN/C(=N/S(=O)(=O)c2ccc(-n3nc(C(F)(F)F)cc3-c3cccs3)cc2)N2CCCC2)cc1
Ki [1]: 1950 nM

CC(C)CC(N)B1OC(C)(C)C(C)(C)O1 (stereo not drawn)
IC50 [10]: 25 nM

Cc1ccc(NC(=O)CN2C(=O)CC[C@H](NC(=O)C(N)Cc3ccccc3)C2=O)c(C)c1 (stereo partly drawn)
IC50 [11]: 5000 nM | IC50 [12]: 1970 nM

CC(C)CC(NC(=O)C(O)C(N)Cc1ccccc1)C(=O)NC(CO)C(=O)NCc1ccccc1 (stereo not drawn)
solubility [13]: 85.2 mM (≈ 41.3 mg/mL) | IC50 [11]: 7200 nM | IC50 [14]: 12600 nM | IC50 [15]: 36000 nM | IC50 [16]: 260000 nM

CCCCC[C@H](CC(=O)NO)C(=O)N[C@H](C(=O)N1CCC[C@H]1CO)C(C)C [ACTINONIN]
IC50 [17]: 400 nM | Ki [17]: 170 nM

CC(N)B1OC(C)(C)C(C)(C)O1 (stereo not drawn)
IC50 [10]: 40 nM

CSCCC(N)CS (stereo not drawn)
Ki [3]: 17200 nM | Ki [18]: 1000 nM | Activity [19]: >220%

CC(N)P(=O)(O)C[C@@H](Cc1ccccc1)C(=O)N[C@@](C)(Cc1ccccc1)C(=O)O (stereo partly drawn)
Ki [5]: 0.6 nM | Ki [6]: 130 nM

CC(C)C[C@@H](N)CS
Ki [20]: 22 nM

CC(C)C[C@H](NC(=O)[C@@H](O)[C@H](N)Cc1ccccc1)C(=O)O [UBENIMEX]
solubility [13]: 35.7 mM (≈ 11 mg/mL)

CC(C)C[C@@H](NC(=O)[C@H](Cc1ccccc1)NC(=O)[C@@H](O)CN)C(=O)O
IC50 [2]: 12200 nM | IC50 [21]: 203000 nM | IC50 [22]: 170 nM | IC50 [23]: 380 nM

CC(C)C[C@H](C(=O)N[C@H](C(=O)O)c1ccccc1)[C@H](O)C(=O)NO
IC50 [24]: 8 nM | IC50 [7]: 30 nM

CC1(C)OB(C(N)Cc2ccccc2)OC1(C)C (stereo not drawn)
IC50 [10]: 20 nM
